# Measured values reported in patent publication US6358947B1 (American Home Products Corporation, priority 1999, dated 2002).
# Assays:
# Assay type in all cases: cell-based
# human PR = target: T1, human PR (Homo sapiens, UniProt P06401); experiment: Cotransfection assay, PR antagonist, CV-1 cells; conditions: for IC50: Table 1, read-out: PR Antagonist CV-1 Cells Potency; for PR Antagonist CV-1 Cells Efficacy: percent maximal response relative to reference antagonist
# T1 sequence (P06401 1-933): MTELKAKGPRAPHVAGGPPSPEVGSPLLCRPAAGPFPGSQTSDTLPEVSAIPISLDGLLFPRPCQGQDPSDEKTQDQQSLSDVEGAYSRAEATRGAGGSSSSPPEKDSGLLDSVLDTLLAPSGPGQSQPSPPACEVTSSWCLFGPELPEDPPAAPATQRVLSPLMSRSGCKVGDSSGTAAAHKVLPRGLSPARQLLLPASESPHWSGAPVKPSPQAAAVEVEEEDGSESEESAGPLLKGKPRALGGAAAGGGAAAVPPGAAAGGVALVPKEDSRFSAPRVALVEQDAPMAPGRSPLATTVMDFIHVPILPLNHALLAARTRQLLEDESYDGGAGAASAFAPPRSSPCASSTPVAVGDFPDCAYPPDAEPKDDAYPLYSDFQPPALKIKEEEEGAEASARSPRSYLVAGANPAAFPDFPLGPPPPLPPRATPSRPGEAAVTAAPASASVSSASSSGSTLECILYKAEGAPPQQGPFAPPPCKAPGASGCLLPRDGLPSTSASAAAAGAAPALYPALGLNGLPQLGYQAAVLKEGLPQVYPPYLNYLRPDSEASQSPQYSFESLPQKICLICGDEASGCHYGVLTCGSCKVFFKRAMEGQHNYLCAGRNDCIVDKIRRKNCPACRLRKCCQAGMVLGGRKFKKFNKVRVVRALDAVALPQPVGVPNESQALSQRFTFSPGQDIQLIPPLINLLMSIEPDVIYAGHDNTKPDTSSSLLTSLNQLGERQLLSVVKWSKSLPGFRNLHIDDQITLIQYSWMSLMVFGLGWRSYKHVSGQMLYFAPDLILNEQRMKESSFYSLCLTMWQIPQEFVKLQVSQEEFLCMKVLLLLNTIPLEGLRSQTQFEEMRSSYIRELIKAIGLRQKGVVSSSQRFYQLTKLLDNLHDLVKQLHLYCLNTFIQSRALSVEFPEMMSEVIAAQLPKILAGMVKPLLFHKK
# From the text: (§1) The cotransfection assay provides a method for identifying functional agonists and partial agonists that mimic, or antagonists that inhibit, the effect of native hormones, and for quantifying their activity for responsive intracellular receptor (IR) proteins. In this regard, the cotransfection assay mimics an in vivo system in the laboratory. Importantly, activity in the cotransfection assay correlates very well with known in vivo activity, such that the cotransfection assay functions as a qualitative and quantitative predictor of a tested compound's in vivo pharmacology.
# (§2) In the cotransfection assay, a cloned cDNA for an IR (e.g., human PR, AR or GR) under the control of a constitutive promoter (e.g., the SV 40 promoter) is introduced by transfection (a procedure to induce cells to take up foreign genes) into a background cell substantially devoid of endogenous IRs. This introduced gene directs the recipient cells to make the IR protein of interest. A second gene is also introduced (cotransfected) into the same cells in conjunction with the IR gene. This second gene, comprising the cDNA for a reporter protein, such as firefly luciferase (LUC), is controlled by an appropriate hormone responsive promoter containing a hormone response element (HRE). This reporter plasmid functions as a reporter for the transcription-modulating activity of the target IR. Thus, the reporter acts as a surrogate for the products (mRNA, then protein) normally expressed by a gene under control of the target receptor and its native hormone.
# (§3) The cotransfection assay can detect small molecule agonists or antagonists of target IRs. Exposing the transfected cells to an agonist ligand compound increases reporter activity in the transfected cells. This activity can be conveniently measured, e.g., by increasing luciferase production, which reflects compound-dependent, IR-mediated increases in reporter transcription. […] Increasing concentrations of a suspected antagonist will decrease the reporter signal (e.g., luciferase production). The cotransfection assay is therefore useful to detect both agonists and antagonists of specific IRs. Furthermore, it determines not only whether a compound interacts with a particular IR, but whether this interaction mimics (agonizes) or blocks (antagonizes) the effects of the native regulatory molecules on target gene expression, as well as the specificity and strength of this interaction.
# hAR = target: T2, hAR (Homo sapiens, UniProt P10275); experiment: Cotransfection assay, AR antagonist; conditions: read-out: AR Potency Antag
# T2 sequence (P10275 1-920): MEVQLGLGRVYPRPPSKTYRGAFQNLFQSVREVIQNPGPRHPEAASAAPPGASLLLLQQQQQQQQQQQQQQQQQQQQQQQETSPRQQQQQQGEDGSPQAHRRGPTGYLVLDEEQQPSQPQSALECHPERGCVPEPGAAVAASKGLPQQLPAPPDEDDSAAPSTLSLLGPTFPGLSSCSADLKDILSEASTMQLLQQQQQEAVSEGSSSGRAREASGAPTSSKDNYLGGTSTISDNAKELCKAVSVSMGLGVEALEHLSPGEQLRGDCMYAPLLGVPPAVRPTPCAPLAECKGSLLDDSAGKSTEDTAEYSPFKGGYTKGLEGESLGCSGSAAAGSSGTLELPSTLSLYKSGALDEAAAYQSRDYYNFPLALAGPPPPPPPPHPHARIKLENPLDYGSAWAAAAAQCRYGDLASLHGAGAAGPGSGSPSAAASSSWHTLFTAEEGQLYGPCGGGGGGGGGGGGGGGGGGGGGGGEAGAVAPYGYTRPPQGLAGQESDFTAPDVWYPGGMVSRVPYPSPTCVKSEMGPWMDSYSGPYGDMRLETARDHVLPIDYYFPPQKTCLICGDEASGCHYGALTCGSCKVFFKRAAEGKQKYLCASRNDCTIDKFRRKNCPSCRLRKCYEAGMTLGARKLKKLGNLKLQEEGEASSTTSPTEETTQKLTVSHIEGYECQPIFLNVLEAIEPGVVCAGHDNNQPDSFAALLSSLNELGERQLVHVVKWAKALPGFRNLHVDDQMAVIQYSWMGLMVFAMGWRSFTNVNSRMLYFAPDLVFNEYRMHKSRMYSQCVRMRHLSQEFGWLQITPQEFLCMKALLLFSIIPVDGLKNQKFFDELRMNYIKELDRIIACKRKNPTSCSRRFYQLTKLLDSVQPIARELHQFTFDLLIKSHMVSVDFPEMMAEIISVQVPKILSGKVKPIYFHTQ
# From the text: as §1, §2, §3
# hGR = target: T3, hGR (Homo sapiens, UniProt P04150); experiment: Cotransfection assay, GR antagonist; conditions: read-out: GR Potency Antag
# T3 sequence (P04150 1-777): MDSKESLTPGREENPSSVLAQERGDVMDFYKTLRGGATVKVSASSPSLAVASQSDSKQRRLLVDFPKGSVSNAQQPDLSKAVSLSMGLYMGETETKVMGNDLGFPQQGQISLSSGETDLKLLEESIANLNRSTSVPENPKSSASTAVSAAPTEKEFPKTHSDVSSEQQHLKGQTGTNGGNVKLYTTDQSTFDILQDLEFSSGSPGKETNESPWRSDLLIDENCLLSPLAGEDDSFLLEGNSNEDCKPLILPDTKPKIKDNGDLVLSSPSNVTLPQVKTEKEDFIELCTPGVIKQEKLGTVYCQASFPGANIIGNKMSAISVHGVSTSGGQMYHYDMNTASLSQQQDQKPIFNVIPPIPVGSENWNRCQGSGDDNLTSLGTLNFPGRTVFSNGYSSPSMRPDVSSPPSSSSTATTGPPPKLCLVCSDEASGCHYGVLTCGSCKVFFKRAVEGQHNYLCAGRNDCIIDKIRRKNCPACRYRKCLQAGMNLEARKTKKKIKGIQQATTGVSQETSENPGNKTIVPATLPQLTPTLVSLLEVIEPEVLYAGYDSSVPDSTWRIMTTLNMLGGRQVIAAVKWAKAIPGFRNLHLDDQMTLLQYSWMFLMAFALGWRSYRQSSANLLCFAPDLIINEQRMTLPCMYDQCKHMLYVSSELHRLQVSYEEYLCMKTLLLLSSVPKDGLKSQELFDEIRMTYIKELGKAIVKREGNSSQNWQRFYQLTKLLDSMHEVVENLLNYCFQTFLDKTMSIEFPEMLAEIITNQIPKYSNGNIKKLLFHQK
# From the text: as §1, §2, §3
Structure (SMILES),IC50 (human PR),PR Antagonist CV-1 Cells Efficacy (human PR),IC50 (hAR),IC50 (hGR)
"CC1(C)OC(=O)Nc2ccc3c(c21)COc1c(F)cc(C#N)cc1-3 [Compound 26, 9-cyano-7-fluoro-4,4-dimethyl-5H-chromeno[3,4-f]-1,3-benzo[d]oxazin-2-one]",16 nM,68%,300 nM,> 10 µM
"CC1(C)OC(=O)Nc2ccc3c(c21)COc1c(F)cc(C=NO)cc1-3 [Compound 25, 7-fluoro-9-hydroxyiminomethyl-4,4-dimethyl-5H-chromeno[3,4-f]-1,3-benzo[d]oxazin-2-one]",23 nM,87%,100 nM,> 10 µM
"CC1(C)OC(=O)Nc2ccc3c(c21)COc1c(F)cccc1-3 [Compound 14, 7-Fluoro-4,4-dimethyl-5H-chromeno[3,4-f]-1,3-benzo[d]oxazin-2-one]",25 nM,95%,200 nM,> 10 µM
"CC1(C)OC(=O)Nc2ccc3c(c21)COc1c(F)cc(Br)cc1-3 [Compound 20, 9-Bromo-7-fluoro-4,4-dimethyl-5H-chromeno[3,4-f]-1,3-benzo[d]oxazin-2-one]",20 nM,80%,1000 nM,> 10 µM
"CC1(C)OC(=O)Nc2ccc3c(c21)COc1c(F)cc(C=O)cc1-3 [Compound 24, 7-fluoro-9-formyl-4,4-dimethyl-5H-chromeno[3,4-f]-1,3-benzo[d]oxazin-2-one]",98 nM,84%,130 nM,> 10 µM
